From patent US11174252B2, “Heterocyclic compounds as kinase inhibitors” (priority 2018, dated 2021)
Structures can show the parent of a compound that is named as a salt. Where two headings read alike, the source gives them in different places.

Key:
FMS kinase = FMS kinase (Homo sapiens (Human), UniProt P07333); test: LanthaScreen kinase assay (ATP, fluorescent-PolyGT substrate, TR-FRET); type: biochemical
CDK4 = CDK4 (Homo sapiens (Human), UniProt P11802); test: In vitro kinase inhibition, luminescence (ADP-Glo) with retinoblastoma substrate; type: biochemical
CDK4, sequence (P11802 whole entry): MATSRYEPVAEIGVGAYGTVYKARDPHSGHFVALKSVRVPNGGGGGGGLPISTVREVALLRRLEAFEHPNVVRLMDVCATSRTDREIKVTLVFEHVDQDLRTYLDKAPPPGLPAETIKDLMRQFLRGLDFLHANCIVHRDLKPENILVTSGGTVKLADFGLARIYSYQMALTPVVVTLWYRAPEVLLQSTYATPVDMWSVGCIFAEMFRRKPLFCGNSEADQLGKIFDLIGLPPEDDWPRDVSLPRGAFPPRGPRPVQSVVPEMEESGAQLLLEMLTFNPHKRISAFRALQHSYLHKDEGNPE
CDK4, sequence (P24385 whole entry partner): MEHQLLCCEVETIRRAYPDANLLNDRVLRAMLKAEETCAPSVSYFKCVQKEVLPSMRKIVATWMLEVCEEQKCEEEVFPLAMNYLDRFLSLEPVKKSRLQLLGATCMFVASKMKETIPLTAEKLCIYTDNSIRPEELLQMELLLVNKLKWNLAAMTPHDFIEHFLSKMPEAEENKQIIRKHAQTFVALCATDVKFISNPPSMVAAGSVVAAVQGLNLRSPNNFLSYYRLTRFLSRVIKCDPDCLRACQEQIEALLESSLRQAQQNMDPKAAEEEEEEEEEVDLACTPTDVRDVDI

CDK6 = CDK6 (Homo sapiens (Human), UniProt Q00534); test: biochemical; type: biochemical
MCF-7 = test: Cancer cell proliferation assay, single agent; type: cell-based; conditions: Homo sapiens
DU4475 = test: Cancer cell proliferation assay, single agent; type: cell-based; conditions: Homo sapiens, DU-4475, read-out: IC50 (nM) DU4475
[1] = MCF7, read-out: IC50 (nM) MCF-7
[2] = MCF7, MCF-7 cells, treated for 24-168 hours, read-out: IC50 (nM) MCF-7

FMS kinase, sequence (P07333 20-972): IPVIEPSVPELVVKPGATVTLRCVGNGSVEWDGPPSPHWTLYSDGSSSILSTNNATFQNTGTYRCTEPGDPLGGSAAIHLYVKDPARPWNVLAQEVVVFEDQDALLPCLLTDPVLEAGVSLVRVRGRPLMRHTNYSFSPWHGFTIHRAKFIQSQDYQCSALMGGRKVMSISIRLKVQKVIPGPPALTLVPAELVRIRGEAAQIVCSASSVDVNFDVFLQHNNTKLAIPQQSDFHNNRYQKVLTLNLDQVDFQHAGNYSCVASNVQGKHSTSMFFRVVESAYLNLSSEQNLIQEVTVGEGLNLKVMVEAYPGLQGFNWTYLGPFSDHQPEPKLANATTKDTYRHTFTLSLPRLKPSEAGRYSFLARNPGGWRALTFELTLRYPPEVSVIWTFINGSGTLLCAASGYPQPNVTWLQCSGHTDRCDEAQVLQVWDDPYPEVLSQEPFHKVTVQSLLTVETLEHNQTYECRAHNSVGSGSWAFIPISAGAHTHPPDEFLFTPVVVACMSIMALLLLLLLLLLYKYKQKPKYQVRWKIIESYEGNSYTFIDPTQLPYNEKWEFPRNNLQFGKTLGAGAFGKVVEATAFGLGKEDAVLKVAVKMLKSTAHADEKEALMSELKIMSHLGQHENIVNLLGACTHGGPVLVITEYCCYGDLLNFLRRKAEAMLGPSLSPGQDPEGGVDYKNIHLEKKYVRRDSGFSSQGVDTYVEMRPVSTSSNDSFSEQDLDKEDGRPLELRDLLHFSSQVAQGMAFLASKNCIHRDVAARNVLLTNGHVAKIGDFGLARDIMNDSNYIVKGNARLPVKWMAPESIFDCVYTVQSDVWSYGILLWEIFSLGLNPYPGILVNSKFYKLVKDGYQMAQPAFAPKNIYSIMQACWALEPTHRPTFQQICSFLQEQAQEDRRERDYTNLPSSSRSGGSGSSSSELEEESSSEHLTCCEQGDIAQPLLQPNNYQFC

SMILES | IC50 (DU4475) | IC50 (FMS kinase) | IC50 (CDK4) | IC50 (CDK6) | IC50 (MCF-7; [1]) | IC50 (MCF-7; [2])
CC(C)N1C(=O)COc2c(F)cc(-c3nc(Nc4ccc(N5CCNCC5)cn4)ncc3F)cc21 [Compound 2, 8-fluoro-6-(5-fluoro-2-(5-(piperazin-1-yl)pyridin-2-ylamino)pyrimidin-4-yl)-4-isopropyl-2H-benzo[b][1,4]oxazin-3(4H)-one] | – | > 5000 nM | 6 nM | 6.9 nM | – | –
Fc1cnc(Nc2ccc(N3CCNCC3)cn2)nc1-c1cc(F)c2c(c1)NCCO2 [Compound 3, 5-fluoro-4-(8-fluoro-3,4-dihydro-2H-benzo[b][1,4]oxazin-6-yl)-N-(5 (piperazin-1-yl)pyridin-2-yl)pyrimidin-2-amine] | – | > 5000 nM | 3 nM | 5.7 nM | – | –
CCN1CCN(Cc2ccc(Nc3ncc(F)c(-c4cc(F)c5c(c4)N(C4CCC(N)CC4)CCO5)n3)nc2)CC1 (stereo not drawn) [Compound 9, 4-(4-(4-aminocyclohexyl)-8-fluoro-3,4-dihydro-2H-benzo[b][, 4]oxazin-6-yl)-N-(5-((4-ethylpiperazin-1-yl)methyl)pyridin-2-yl)-5-fluoropyrimidin-2-amine] | – | > 5000 nM | > 183 nM | 173 nM | 3260 nM | –
CC1CN(c2ccc(Nc3ncc(F)c(-c4cc(F)c5c(c4)N(C(C)C)CCO5)n3)nc2)CCN1 (stereo not drawn) [Compound 10, 5-fluoro-4-(8-fluoro-4-isopropyl-3,4-dihydro-2H-benzo[b][1,4]oxazin-6-yl)-N-(5-(3-methylpiperazin-1-yl)pyridin-2-yl)pyrimidin-2-amine] | – | 570 nM | 4.5 nM | 2.5 nM | 280 nM | –
CC(C)N1CCOc2c(F)cc(-c3nc(Nc4ccc(N5CCNCC5)c(F)c4)ncc3Cl)cc21 [Compound 30, 5-chloro-N-(3-fluoro-4-(piperazin-1-yl)phenyl)-4-(8-fluoro-4-isopropyl-3,4-dihydro-2H-benzo[b][1,4]oxazin-6-yl)pyrimidin-2-amine] | – | 79 nM | 1 nM | 13 nM | 233 nM | –
CC1CN(C(C)C)c2cc(-c3nc(Nc4ccc(N5CCNCC5)c(F)c4)ncc3F)cc(F)c2O1 (stereo not drawn) [Compound 32, 5-fluoro-N-(3-fluoro-4-(piperazin-1-yl)phenyl)-4-(8-fluoro-4-isopropyl-2-methyl-3,4-dihydro-2H-benzo[b][1,4]oxazin-6-yl)pyrimidin-2-amine] | – | 177 nM | 12 nM | 21 nM | – | 130 nM
CN1CCOc2c(F)cc(-c3nc(Nc4ccc(N5CCNCC5)c(F)c4)ncc3F)cc21 [Compound 34, 5-fluoro-N-(3-fluoro-4-(piperazin-1-yl)phenyl)-4-(8-fluoro-4-methyl-3,4-dihydro-2H-benzo[b][1,4]oxazin-6-yl)pyrimidin-2-amine] | – | 42 nM | 3 nM | 6 nM | 50 nM | –
CCN1CCOc2c(F)cc(-c3nc(Nc4ccc(N5CCNCC5)c(F)c4)ncc3F)cc21 [Compound 35, 4-(4-ethyl-8-fluoro-3,4-dihydro-2H-benzo[b][1,4]oxazin-6-yl)-5-fluoro-N-(3-fluoro-4-(piperazin-1-yl)phenyl)pyrimidin-2-amine] | – | 58 nM | 2.5 nM | 3 nM | 20 nM | –
CCCN1CCOc2c(F)cc(-c3nc(Nc4ccc(N5CCNCC5)c(F)c4)ncc3F)cc21 [Compound 36, 5-fluoro-N-(3-fluoro-4-(piperazin-1-yl)phenyl)-4-(8-fluoro-4-propyl-3,4-dihydro-2H-benzo[b][1,4]oxazin-6-yl)pyrimidin-2-amine] | – | 102 nM | 4 nM | 5 nM | 40 nM | –
CC(C)N1CCOc2c(F)cc(-c3nc(Nc4ccc5c(c4)CCC(N(C)C)C5)ncc3F)cc21 (stereo not drawn) [Compound 47, N6-(5-fluoro-4-(8-fluoro-4-isopropyl-3,4-dihydro-2H-benzo[b][1,4]oxazin-6-yl)pyrimidin-2-yl)-N2,N2-dimethyl-1,2,3,4-tetrahydronaphthalene-2,6-diamine] | – | 2.5 nM | 3.5 nM | 4 nM | – | 20 nM
CC(C)N1CCOc2c(Cl)cc(-c3nc(Nc4ccc(N5CCNCC5)c(F)c4)ncc3Cl)cc21 [Compound 52, 5-chloro-4-(8-chloro-4-isopropyl-3,4-dihydro-2H-benzo[b][1,4]oxazin-6-yl)-N-(3-fluoro-4-(piperazin-1-yl)phenyl)pyrimidin-2-amine] | – | 14 nM | 89 nM | 200 nM | – | 695 nM
CC(C)N1CCOc2c(F)cc(-c3nc(Nc4ccc5c(c4)CC(N(C)C)CC5)ncc3F)cc21 (stereo not drawn) [Compound 206, N7-(5-fluoro-4-(8-fluoro-4-isopropyl-3,4-dihydro-2H-benzo[b][1,4]oxazin-6-yl)pyrimidin-2-yl)-N2,N2-dimethyl-1,2,3,4-tetrahydronaphthalene-2,7-diamine] | – | 2.5 nM | 56 nM | 100 nM | – | 670 nM
CC(C)N1CCOc2c(F)cc(-c3nc(Nc4ccc(C5CCNCC5)c(C(F)(F)F)c4)ncc3F)cc21 [Compound 438, 5-fluoro-4-(8-fluoro-4-isopropyl-3,4-dihydro-2H-benzo[b][1,4]oxazin-6-yl)-N-(4-(piperidin-4-yl)-3-(trifluoromethyl)phenyl)pyrimidin-2-amine] | – | 5 nM | 41 nM | 74 nM | – | 200 nM
CC(C)N1CCOc2c(F)cc(-c3nc(Nc4ccc(C(=O)N5CCC(O)CC5)cn4)ncc3F)cc21 [Compound 460, (6-((5-fluoro-4-(8-fluoro-4-isopropyl-3,4-dihydro-2H-benzo[b][1,4]oxazin-6-yl)pyrimidin-2-yl)amino)pyridin-3-yl)(4-hydroxypiperidin-1-yl)methanone] | – | > 5000 nM | 13 nM | 18 nM | – | 595 nM
CC(C)N1CCOc2c(F)cc(-c3nc(Nc4cn(C5CCN(C)CC5)cn4)ncc3F)cc21 [Compound 496, 5-fluoro-4-(8-fluoro-4-isopropyl-3,4-dihydro-2H-benzo[b][1,4]oxazin-6-yl)-N-(1-(1-methylpiperidin-4-yl)-1H-imidazol-4-yl)pyrimidin-2-amine] | 3420 nM | – | – | – | 1450 nM | –
COCCN1CCN(Cc2ccc(Nc3ncc(F)c(-c4cc(F)c5c(c4)N(C(C)C)CCO5)n3)nc2)CC1 [Compound 524, 5-fluoro-4-(8-fluoro-4-isopropyl-3,4-dihydro-2H-benzo[b][1,4]oxazin-6-yl)-N-(5-((4-(2-methoxyethyl)piperazin-1-yl)methyl)pyridin-2-yl)pyrimidin-2-amine] | – | – | 3.5 nM | 7.5 nM | – | 332 nM
COC1CCN(c2ccc(Nc3ncc(F)c(-c4cc(F)c5c(c4)N(C(C)C)CCO5)n3)nc2)CC1 [Compound 843, 5-fluoro-4-(8-fluoro-4-isopropyl-3,4-dihydro-2H-benzo[b][1,4]oxazin-6-yl)-N-(5-(4-methoxypiperidin-1-yl)pyridin-2-yl)pyrimidin-2-amine hydrochloride] | – | – | 65 nM | 24 nM | – | –
COc1nc(Nc2ncc(F)c(-c3cc(F)c4c(c3)N(C(C)C)CCO4)n2)ccc1C1CCN(C)CC1 [Compound 844, 5-fluoro-4-(8-fluoro-4-isopropyl-3,4-dihydro-2H-benzo[b][1,4]oxazin-6-yl)-N-(6-methoxy-5-(1-methylpiperidin-4-yl)pyridin-2-yl)pyrimidin-2-amine] | – | – | 31 nM | 35 nM | – | –
CC(C)N1CCOc2c(F)cc(-c3nc(Nc4ccc(C5CCN(C)CC5)c(C#N)n4)ncc3F)cc21 [Compound 845, 6-((5-fluoro-4-(8-fluoro-4-isopropyl-3,4-dihydro-2H-benzo[b][1,4]oxazin-6-yl)pyrimidin-2-yl)amino)-3-(1-methylpiperidin-4-yl)picolinonitrile] | – | – | 23 nM | 29 nM | – | –
CC(C)N1CCOc2c(F)cc(-c3nc(Nc4ccc(C5CCN(C)CC5)c(F)n4)ncc3F)cc21 [Compound 846, 5-fluoro-4-(8-fluoro-4-isopropyl-3,4-dihydro-2H-benzo[b][1,4]oxazin-6-yl)-N-(6-fluoro-5-(1-methylpiperidin-4-yl)pyridin-2-yl)pyrimidin-2-amine] | – | – | 3 nM | 4 nM | – | –
CC(C)N1CCOc2c(F)cc(-c3nc(Nc4ccc(C5CCN(C)CC5)c(C5CC5)n4)ncc3F)cc21 [Compound 847, N-(6-cyclopropyl-5-(1-methylpiperidin-4-yl)pyridin-2-yl)-5-fluoro-4-(8-fluoro-4-isopropyl-3,4-dihydro-2H-benzo[b][1,4]oxazin-6-yl)pyrimidin-2-amine] | – | – | 44 nM | 107 nM | – | –
CCCc1nc(Nc2ncc(F)c(-c3cc(F)c4c(c3)N(C(C)C)CCO4)n2)ccc1C1CCN(C)CC1 [Compound 848, 5-fluoro-4-(8-fluoro-4-isopropyl-3,4-dihydro-2H-benzo[b][1,4]oxazin-6-yl)-N-(5-(1-methylpiperidin-4-yl)-6-propylpyridin-2-yl)pyrimidin-2-amine] | – | – | 44 nM | 110 nM | – | –

The next lines start with results.

IC50 (DU4475) | SMILES | IC50 (FMS kinase) | IC50 (CDK4) | IC50 (CDK6) | IC50 (MCF-7; [1]) | IC50 (MCF-7; [2])
4150 nM | CC(C)N1CCOc2c(F)cc(-c3nc(Nc4cn(C5CCNCC5)cn4)ncc3F)cc21 [Compound 504, 5-fluoro-4-(8-fluoro-4-isopropyl-3,4-dihydro-2H-benzo[b][1,4]oxazin-6-yl)-N-(1-(piperidin-4-yl)-1H-imidazol-4-yl)pyrimidin-2-amine] | – | – | – | 1940 nM | –
1500 nM | CC(C)N1CCOc2c(F)cc(-c3nc(Nc4ccc(N5CCN(C(=O)CO)CC5)cn4)ncc3F)cc21 [Compound 506, 1-(4-(6-((5-fluoro-4-(8-fluoro-4-isopropyl-3,4-dihydro-2H-benzo[b][1,4]oxazin-6-yl)pyrimidin-2-yl)amino)pyridin-3-yl)piperazin-1-yl)-2-hydroxyethan-1-one] | – | – | – | – | 354 nM
